pIC50: −log10 of the molar value.

As usually defined, the pIC50 is −log10 of the IC50, conventionally taken in molar units.

The target in the first experiment is T1, USP25 (USP25-His6, Boston Biochem E-546) (Homo sapiens, UniProt Q9UHP3).
T1 construct: His6; purchased Boston Biochem E-546
T1 sequence (Q9UHP3 1-1055): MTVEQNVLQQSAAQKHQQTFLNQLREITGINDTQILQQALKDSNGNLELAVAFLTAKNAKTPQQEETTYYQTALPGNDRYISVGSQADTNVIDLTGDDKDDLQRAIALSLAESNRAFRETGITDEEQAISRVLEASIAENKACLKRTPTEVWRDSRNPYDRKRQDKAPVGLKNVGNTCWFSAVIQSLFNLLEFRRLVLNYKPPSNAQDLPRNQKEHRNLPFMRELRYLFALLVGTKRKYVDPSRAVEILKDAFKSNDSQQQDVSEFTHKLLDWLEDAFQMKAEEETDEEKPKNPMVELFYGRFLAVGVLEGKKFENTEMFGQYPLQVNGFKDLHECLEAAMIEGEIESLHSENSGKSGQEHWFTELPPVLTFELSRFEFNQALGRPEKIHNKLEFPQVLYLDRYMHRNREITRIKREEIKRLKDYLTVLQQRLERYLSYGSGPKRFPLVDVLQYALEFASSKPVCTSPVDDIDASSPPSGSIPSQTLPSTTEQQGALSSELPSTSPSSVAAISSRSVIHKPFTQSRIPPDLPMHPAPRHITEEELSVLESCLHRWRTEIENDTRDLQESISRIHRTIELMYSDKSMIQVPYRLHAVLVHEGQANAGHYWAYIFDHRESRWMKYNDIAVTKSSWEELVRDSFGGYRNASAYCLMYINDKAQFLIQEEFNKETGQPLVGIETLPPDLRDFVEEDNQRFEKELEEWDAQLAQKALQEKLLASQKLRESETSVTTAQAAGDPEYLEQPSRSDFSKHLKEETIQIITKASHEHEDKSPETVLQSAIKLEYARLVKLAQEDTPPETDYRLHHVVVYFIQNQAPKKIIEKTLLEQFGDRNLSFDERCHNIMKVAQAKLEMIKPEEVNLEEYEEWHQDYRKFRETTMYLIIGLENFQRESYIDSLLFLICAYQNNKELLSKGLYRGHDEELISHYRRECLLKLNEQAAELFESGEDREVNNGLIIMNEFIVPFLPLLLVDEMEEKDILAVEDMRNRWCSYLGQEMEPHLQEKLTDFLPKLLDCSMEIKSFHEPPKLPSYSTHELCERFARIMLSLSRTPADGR
The experiment can be described thus: Ubiquitin-Rhodamine 110 Assay for USP25 Activity, Example A-2. Format: biochemical. Conditions: Ubiquitin-Rhodamine 110 assay, Example A-2; read-out: USP25 A-2 IC50 range. The method, boiled down: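 Fluorescence (ex 485, em 535 nm) of cleaved ubiquitin-rhodamine 110 (25 nM, below Km) gave IC50 via 4-parameter logistic fit. Reaction: 45 min, room temperature, citric acid stop, after 30 min compound preincubation with 75 pM USP25-His6 in 20 mM Tris pH 8.0, 3 mM BME, 0.03% BGG, 0.01% Triton X-100; top dose 25 μM.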
For `CCn1ccc2cc(C(=O)N[C@@H]3CCc4cc(N5CC6CCC(C5)N6)ccc4C3)cnc21` (single isomer, unassigned) [Example 11-10], the pIC50 is 5.70 to 6.70.
For `Cc1ccc2c(N)c(C(=O)N[C@H]3COc4cc(O[C@H]5COC6(CNC6)C5)ccc4C3)sc2n1` (single isomer, unassigned) [Example 9-2], the negative logarithm of the IC50 (pIC50) is 6.70 to 7.30.
Same read-out and setting: the same measure for `Cc1ccc2c(N)c(C(=O)N[C@H]3CCc4cc(N5CCN[C@H](CO)C5)ccc4C3)sc2n1` (single isomer, unassigned) [Example 7-8]: less than 5.70; for `Cc1cc(C)c2c(N)c(C(=O)N[C@H]3COc4cc(N5CCNCC5)cc(F)c4C3)sc2n1` [Example 10-9, (R)-3-amino-N-(5-fluoro-7-(piperazin-1-yl)chroman-3-yl)-4,6-dimethylthieno[2,3-b]pyridine-2-carboxamide]: 6.70 to 7.30; for `CO[C@H]1CN(c2cc(F)c3c(c2)OC[C@H](NC(=O)c2sc4nc(C)ccc4c2N)C3)C[C@@H]1N` (single isomer, unassigned) [Example 10-3]: 5.70 to 6.70.
Same read-out and setting: as for `Cc1cnc2c(N)c(C(=O)N[C@H]3CCc4cc(N5CCNC[C@H](O)C5)ccc4C3)sc2n1` (single isomer, unassigned) [Example 7-6], the figure is less than 5.70.
The same measure, in the same setting: as for `CCn1ccc2cc(C(=O)N[C@H]3CCc4cc(N5CC6CCC(C5)N6)ccc4C3)cnc21` (single isomer, unassigned) [Example 11-9], the figure is less than 5.70.
In the case of `Cc1ccc2c(N)c(C(=O)N[C@H]3COc4cc(O[C@@H]5COC6(CNC6)C5)ccc4C3)sc2n1` (single isomer, unassigned) [Example 9-1], the pIC50 is 6.70 to 7.30.
Same read-out and setting: the same measure for `CCn1ccc2cc(C(=O)N[C@@H]3CCc4cc(N5CC6CCC(C5)N6)ccc4C3)nnc21` (single isomer, unassigned) [Example 11-23]: less than 5.70; for `Cc1nc2sc(C(=O)N[C@@H]3CCc4cc(N5CC6CCC(C5)N6)ccc4C3)c(N)c2cc1F` (single isomer, unassigned) [Example 11-4]: 6.70 to 7.30; for `Cc1ccc2c(N)c(C(=O)N[C@@H]3COc4cc(N5CCNCC5)ccc4[C@@H]3C)sc2n1` (single isomer, unassigned) [Example 11-18]: less than 5.70.
The same measure, in the same setting: the same measure for `Cc1ccc2c(N)c(C(=O)N[C@@H]3CCc4cc(N5CCN[C@H](CO)C5)ccc4C3)sc2n1` (single isomer, unassigned) [Example 7-10]: 5.70 to 6.70; for `CO[C@@H]1CN(c2cc(F)c3c(c2)OC[C@H](NC(=O)c2sc4nc(C)ccc4c2N)C3)C[C@H]1N` [Example 10-2, 3-amino-N-((R)-7-((3R,4R)-3-amino-4-methoxypyrrolidin-1-yl)-5-fluorochroman-3-yl)-6-methylthieno[2,3-b]pyridine-2-carboxamide]: 5.70 to 6.70; for `Cc1ccc2c(N)c(C(=O)N(C)[C@H]3COc4cc(N5CCNCC5)cc(F)c4C3)sc2n1` [Example 10-15, 3-amino-N-[(3R)-5-fluoro-7-(piperazin-1-yl)-3,4-dihydro-2H-1-benzopyran-3-yl)-N,6-dimethylthieno[2,3-b]pyridine-2-carboxamide]: less than 5.70.
Consider `Cc1cnc2c(N)c(C(=O)N[C@@H]3CCc4cc(N5CC6CCC(C5)N6)cc(F)c4C3)sc2n1` (single isomer, unassigned) [Example 11-14], for which the pIC50 is 5.70 to 6.70.
In the case of `Cc1cnc2c(N)c(C(=O)N[C@H]3COc4cc(N5CC6CNCC(C5)O6)cc(F)c4C3)sc2n1` [Example 10-12, N-((3R)-7-(9-oxa-3,7-diazabicyclo[3.3.1]nonan-3-yl)-5-fluorochroman-3-yl)-7-amino-3-methylthieno[2,3-b]pyrazine-6-carboxamide], the pIC50 is 7.30 to 9.00.
Consider `Cc1cnc2c(N)c(C(=O)N[C@@H]3CCc4cc(N5CCNC[C@H](O)C5)ccc4C3)sc2n1` (single isomer, unassigned) [Example 7-7], for which the pIC50 is less than 5.70.
On the same count and under the same terms, the same measure for `Cc1cc(C)c2c(N)c(C(=O)N[C@H]3COc4cc(N5CC6CNCC(C5)O6)cc(F)c4C3)sc2n1` [Example 10-13, N-((3R)-7-(9-oxa-3,7-diazabicyclo[3.3.1]nonan-3-yl)-5-fluorochroman-3-yl)-3-amino-4,6-dimethylthieno[2,3-b]pyridine-2-carboxamide]: 7.30 to 9.00.

Still in this experiment, the particulars now being: Ubiquitin-Rhodamine 110 assay, format Example A-2; read-out: USP25 A-2 IC50 range.
For `Cc1ccc2c(N)c(C(=O)N[C@@H]3COc4cc(N5CC6CCC(C5)N6)c(F)c(F)c4C3)sc2n1` [Example 13-4, N-((3S)-7-(3,8-diazabicyclo[3.2.1]octan-3-yl)-5,6-difluorochroman-3-yl)-3-amino-6-methylthieno[2,3-b]pyridine-2-carboxamide], the pIC50 was 6.70 to 7.30.
The same measure, in the same setting: the same measure for `Cc1ccc2c(N)c(C(=O)N[C@@H]3CCc4c(F)c(N5CCNCC5)cc(F)c4C3)sc2n1` (single isomer, unassigned) [Example 22-2]: 6.70 to 7.30; for `Cc1nc2sc(C(=O)N[C@H]3CCc4cc(N5CC6CCC(C5)N6)ccc4C3)c(N)c2s1` (single isomer, unassigned) [Example 12-1]: less than 5.70.
As to `CO[C@H]1CN(c2ccc3c(n2)CC[C@@H](NC(=O)c2sc4nc(C)ccc4c2N)C3)C[C@@H]1N` [Example 23-5, 3-amino-N-[(6R)-2-[(3S,4S)-3-amino-4-methoxypyrrolidin-1-yl]-5,6,7,8-tetrahydroquinolin-6-yl]-6-methylthieno[2,3-b]pyridine-2-carboxamide], the pIC50 was less than 5.70.
The same measure, in the same setting: as for `Cc1ccc2c(N)c(C(=O)N[C@H]3COc4nc(N5CCNCC5)ccc4C3)sc2n1` [Example 19, (R)-3-Amino-6-methyl-N-(7-(piperazin-1-yl)-3,4-dihydro-2H-pyrano[2,3-b]pyridin-3-yl)thieno[2,3-b]pyridine-2-carboxamide], the figure is 5.70 to 6.70; as for `Cc1ccc2c(N)c(C(=O)N[C@H]3COc4c(F)c(N5CC6CCC(C5)N6)cc(F)c4C3)sc2n1` (single isomer, unassigned) [Example 13-1], 6.70 to 7.30.
Same read-out and setting: the same measure for `Cc1ccc2c(N)c(C(=O)N[C@H]3COc4cc(N5CCNCC5)ncc4C3)sc2n1` [Example 16, (R)-3-Amino-6-methyl-N-(7-(piperazin-1-yl)-3,4-dihydro-2H-pyrano[3,2-c]pyridin-3-yl)thieno[2,3-b]pyridine-2-carboxamide]: 5.70 to 6.70; for `Cc1ccc2c(N)c(C(=O)N[C@H]3CCc4c(F)c(N5CC6CNCC(C5)O6)cc(F)c4C3)sc2n1` (single isomer, unassigned) [Example 22-3]: less than 5.70; for `Cc1ccc2c(N)c(C(=O)N[C@@H]3CCc4c(F)c(N5CC6CNCC(C5)O6)cc(F)c4C3)sc2n1` (single isomer, unassigned) [Example 22-4]: 7.30 to 9.00.
Still for that read-out and setting: as for `Cc1ccc2c(N)c(C(=O)N[C@H]3CCc4c(F)c(N5CCNCC5)cc(F)c4C3)sc2n1` (single isomer, unassigned) [Example 22-1], the figure is less than 5.70.
Turning to `Cc1ccc2c(N)c(C(=O)N[C@@H]3COc4c(F)c(N5CC6CCC(C5)N6)cc(F)c4C3)sc2n1` (single isomer, unassigned) [Example 13-2], the pIC50 was less than 5.70.
As to `Cc1ccc2c(N)c(C(=O)N[C@H]3COc4c(cnc(N5CC6CCC(C5)N6)c4F)C3)sc2n1` [Example 18, N-((3R)-7-(3,8-Diazabicyclo[3.2.1]octan-3-yl)-8-fluoro-3,4-dihydro-2H-pyrano[3,2-c]pyridin-3-yl)-3-amino-6-methylthieno[2,3-b]pyridine-2-carboxamide], the pIC50 was 6.70 to 7.30.
The same measure, in the same setting: as for `CO[C@H]1CN(c2ccc3c(n2)CC[C@@H](NC(=O)c2sc4nc(C)cnc4c2N)C3)C[C@@H]1N` (single isomer, unassigned) [Example 23-2], the figure is less than 5.70.
On the same count and under the same terms, as for `Cc1ccc2c(N)c(C(=O)N[C@H]3COc4cc(N5CCNCC5)c(Cl)cc4C3)sc2n1` [Example 13-5, (R)-3-amino-N-(6-chloro-7-(piperazin-1-yl)chroman-3-yl)-6-methylthieno[2,3-b]pyridine-2-carboxamide], the figure is less than 5.70; as for `Cc1ccc2c(N)c(C(=O)N[C@@H]3CCc4cc(N5CCNCC5)c(F)cc4C3)sc2n1` (single isomer, unassigned) [Example 21-7], 5.70 to 6.70.

For the origin of these results see US11524966B1 (Valo Early Discovery, Inc., priority 2017, dated 2022).
